Assays:
[1] = test system: UMSCC-10b cells; experiment: SCID mouse xenograft model; assay type: in vivo
Method: SCID mice (from Envigo, 5-6 weeks of age) were injected subcutaneously with 1.5×10^6 mycoplasma-free UMSCC 10B cells in one flank. […] At the time of each treatment, tumor volumes were calculated based on the formula: volume=width2×(length/2) [Jajoo et al.]. Mice were killed 24 h after the eleventh treatment. All procedures were performed in accordance with relevant guidelines and regulations of SIU School of Medicine.

[2] = test system: CB2 receptor; experiment: Immunoblotting for CB1 and CB2 receptors; assay type: cell-based, mouse; conditions: capsaicin 2.5 μM 24 h
Method: FIG. 10.A. UBOC-1 cells were treated with capsaicin (2.5 μM) for 24 h. Total protein was extracted and immunoblotting was performed for CB1 and CB2 receptors. B-actin was used for housekeeping and loading control. Capsaicin increased CB2 receptor staining. FIG. 10.B. Cochleae were harvested from rats treated with either oral PBS or oral capsaicin (20 mg/kg) for 24 h. Total RNA was harvested, converted to c-DNA and probed for CB2 receptor expression by q-PCR. GAPDH was used as housekeeping gene. […] FIG. 10.C. and FIG. 10.D. Cochleae were harvested from rats treated with PBS, fixed in 4% paraformaldehyde in PBS for 8 h. They were then decalcified in EDTA (10 mM), and mid modiolar sections of the cochleae were probed for the cannabinoid receptors subtypes, CB1 (FIG. 10.C.) and CB2 (FIG. 10.D.), while nuclei were stained with DAPI. Fluorescent images were obtained with a Leica confocal microscope. […] Magnification for OHC, spiral ganglion cells and stria vascularis (40×). Similar images were obtained from 3 different animals.
Total cell lysates were prepared using ice-cold lysis buffer containing 50 mM Tris HCl, 10 mM MgCl2 and 1 mM EDTA in the presence of protease inhibitors mixture and phosphatase inhibitor 1 (1:100) (Sigma, St. Louis, MO). The lysates were kept on ice for 5 min followed by centrifugation. The clear supernatant was transferred to a clean tube and discarded the pellet. […]

[3] = test system: rat cochlea; experiment: Cochlear gene expression by qPCR after noise exposure; assay type: in vivo
Method: Cochleae were pared down to the bone, crushed in liquid nitrogen followed by extraction in 500 μl of TRI reagent. 0.1 ml of chloroform was added, and the tube was shaken vigorously for 15 seconds and centrifuged at 12,000×g for 15 min. RNA was extracted by washing the pellet with 0.5 ml ice-cold isopropanol followed by cold 75% treated ethanol. The ethanol was removed and the tube was air dried briefly. The RNA pellet was resuspended in nuclease free water and RNA levels were determined using optical density readings corresponding to wavelengths of 260 nm, 280 and 320 nm using a spectrophotometer (Eppendorf BioPhotometer, Hamburg, Germany).
500 ng of total RNA was converted to cDNA using iScript cDNA Synthesis Kit (Bio-Rad, Hercules, CA). The reaction mixture was set up as follows: Ing of total RNA, 4 μl of iScript reaction mix, 1 μl of iScript reverse transcriptase, nuclease free water to bring the total volume to 20 μl. The reaction mix was incubated at 25° C. for 5 min, 42° C. for 30 minutes and 85° C. for 5 minutes. This cDNA reaction mix was used for real time PCR, as described previously [Mukherjea et al., 2006]. Gene specific primer pairs were used for the various reactions and mRNA expression levels were normalized to the levels of GAPDH. The primer sets were purchased from Sigma Genosys (St. Louis, MO), and were as follows: […]

COc1cc(CNC(=O)CCCC/C=C/C(C)C)ccc1O [capsaicin, 8-methyl-N-vanillyl-trans-6-nonenamide]
cisplatin tumor growth curves ([1]; oral capsaicin 0.5 mg/kg + cisplatin 2 mg/kg ip): shifted the cisplatin tumor growth curves to the right
tumor growth (volume, size, weight) ([1]; single agent: cisplatin 2 mg/kg ip or oral capsaicin 0.5 mg/kg): decreased tumor size and weight, but not significantly
CB2 expression [2]: increased CB2 expression
Bax gene expression over oral PBS control ([3]; oral Cap+NE): 0.86±0.1 fold
COX2 gene expression over oral PBS control ([3]; oral Cap+NE): 0.84±0.2 fold
NOX3 gene expression over oral PBS control ([3]; oral Cap+NE): 0.5±0.2 fold
TNF-α gene expression over oral PBS control ([3]; oral Cap+NE): 0.9±0.1 fold
TRPV1 gene expression over oral PBS control ([3]; oral Cap+NE): 0.85±0.2 fold
Bax gene expression over oral PBS control ([3]; oral capsaicin alone): 0.69±0.1 fold
COX2 gene expression over oral PBS control ([3]; oral capsaicin alone): 1±0.1 fold
NOX3 gene expression over oral PBS control ([3]; oral capsaicin alone): 0.7±0.2 fold
TNF-α gene expression over oral PBS control ([3]; oral capsaicin alone): 1±0.15 fold
TRPV1 gene expression over oral PBS control ([3]; oral capsaicin alone): 0.9±0.1 fold

From patent US12162935B2, “Regimens, compositions and methods with capsaicin and TNF-alpha inhibitor” (priority 2018, dated 2024)
